Bridge positions count the residues as written; N and C are the ends. Square brackets hold non-standard residues; d marks the D form. Peptide text beside a SMILES is read from it. * marks the point of attachment. Ileψ(thiazoline)Cys = CC[C@H](C)[C@H](N)C1=N[C@H](C(=O)*)CS1; dOrn = NCCC[C@@H](N)C(=O)O
Columns and labels:
Type in all cases: cell-based, Bacillus subtilis
[1] = system: B. subtilis wild-type strain CU1065 gene expression; assay: DNA microarray analysis of the bacitracin stimulon, wild-type CU1065; details: wild type CU1065, 5 min after bacitracin
Text: The bacitracin stimulon of B. subtilis was examined using global transcriptome analysis. […] Under most conditions tested, about 60-70 genes were induced greater than 5-fold. […] The scatter-plot represents the data sets obtained for strain HB0920 (yvqH was still detected as bacitracin-inducible due to the presence of a remaining region near the 5′-end of the gene). […] Members of the σ^M (white open squares) and σ^B (small black triangles) regulon are highlighted. All other gene signals are represented as small gray diamonds. […]
The bacitracin stimulon in the wild-type strain CU1065 was qualitatively similar to that of the liaH-deletion mutant HB0920 as judged by a comparison of the induction profile at 5 min, as illustrated in FIG. 8. […] Relative hybridization intensities are plotted for genes as measured for CU1065 (x axis) and HB0920 (y axis). […]
This locus is therefore a candidate for negative regulation by LiaH. In addition, expression of the bacAB and yvcRS loci was threefold greater in CU1065 than in the liaH mutant when both were measured 5 min after bacitracin treatment. […]
Each slide contains 9220 features corresponding to duplicate copies of each open reading frame, additional PCR products for some ORFs, rRNA genes, and other controls. […] Fluorescent signal intensity data was quantified using ArrayVision software (Molecular Dynamics) and normalized to the total detectable mRNA. […]

[2] = system: liaH expression (liaH::pMUTIN, strain BFS2469); assay: Quantitative β-galactosidase assay, strain BFS2469; details: bacitracin 100 μg/mL, 30 minutes
Procedure: Specifically, cultures of B. subtilis strain BFS2469 (liaH::pMUTIN) and BFS2470 (liaI::pMUTIN) were grown in LB medium to midlog phase, 2 mL for the un-induced control sample were harvested, and the remaining culture was induced with the three antibiotics for 30 minutes, before the cells of the induced sample were harvested. All samples were taken in duplicate from two independent cultures and the standard deviation is indicated by error bars.
Measurement of induction by β-galactosidase assays: Cells were inoculated from fresh overnight LB-plates and grown in LB-medium at 37° C. with aeration until they reached an O.D.600=0.45. 2 mL of cultures were harvested (un-induced control) and the cell pellets were shock frozen and kept at −70° C. The cultures were induced by addition of antibiotics to a final concentration of: bacitracin (100 μg/mL), tunicamycin (50 μg/mL) or vancomycin (2 μg/mL) and incubated for additional 30 min at 37° C. 2 mL of the cultures were harvested as described above (induced sample). The pellets were re-suspended in 1 mL of working buffer and assayed for β-galactosidase activity as described with normalization to cell density (Miller, 1972, the entire teaching of which is incorporated herein by reference).

[3] = system: liaI expression (liaI::pMUTIN lacZ fusion, strain BFS2470; also liaH::pMUTIN, BFS2469); assay: Disk-diffusion assay, blue ring on X-Gal plates; for Disk-diffusion assay: key: −: no induction; +: induction of yvql expression
Text: The pMUTIN-insertion results in a disruption of the targeted gene and generates a transcriptional fusion to lacZ thereby allowing detection of both antibiotic sensitivity (as defined by the zone of inhibition around the disk) and inducibility (by the formation of a blue ring at the edge of the zone of inhibition) (Cao et al., 2002, Mol Microbiol. 45: 1267-1276, the entire teaching of which is incorporated herein). The disruption of liaI and liaH had no effect on the sensitivity of the mutants to any of the antibiotics tested. […] Equivalent levels of induction were also observed with the PliaI-74-cat-lacZ fragment (in HB0950), albeit with lower fold-changes (See, Table 2). While the mode of action is different for these antibiotics, all four interfere with the lipid II cycle, essential for the biosynthesis of cell envelope polymers (Lazar et al., 2002, Curr. Opin. Chem. Biol. 6: 786-93).
PliaI induction assays: Screening for liaI induction was done by disk diffusion assay essentially as described (Cai, S. J., and M. Inouye, 2002, J Biol Chem 277:24155-61). B. subtilis strains were inoculated from a fresh overnight LB agar plate and grown to mid-log phase (OD600 ˜0.45) at 37 YC with shaking. 20 μl of the culture was mixed with 3 ml of 0.7% soft LB agar (containing 40 μg of X-Gal per plate) and poured onto the bottom agar. After cooling and drying of the plates (20 min at 37 YC), filter paper disks (6 mm diameter) carrying 5 μl of stock solution (antibiotics normally 100 mg/ml; lysozyme 10 mg/ml; tunicamycin, surfactants, uncouplers 5 mg/ml each; inhibitors of protein biosynthesis as given in the media and growth conditions section) were placed on top of the agar. The plates were incubated at 37 YC overnight. After 12-24 h incubation, the plates were scored for the appearance of a blue ring at or near the edge of the zone of growth inhibition produced by the diffusion of the antibiotics from the filter disk.

## CC[C@H](C)[C@H](N)C1=N[C@H](C(=O)N[C@@H](CC(C)C)C(=O)N[C@H](CCC(=O)O)C(=O)N[C@H](C(=O)N[C@H]2CCCCNC(=O)[C@H](CC(N)=O)NC(=O)[C@@H](CC(=O)O)NC(=O)[C@H](Cc3cnc[nH]3)NC(=O)[C@@H](Cc3ccccc3)NC(=O)[C@H]([C@@H](C)CC)NC(=O)[C@@H](CCCN)NC2=O)[C@@H](C)CC)CS1 [Bacitracin] ({Ileψ(thiazoline)Cys}-L[dE]IK[dOrn]I[dF]H[dD]N; lactam 4-C)
[1]
  induction of yhcYZ/yhdA locus: not induced
[2]
  fold increase in liaH expression: 90 fold
[3]; qualitative screen of β-Galactosidase activity, blue ring at edge of zone of inhibition, LB plates with X-Gal, strain BFS2470
  disk-diffusion assay: +
[3]; strains BFS2469 and BFS2470
  induction of liaI / liaH expression, in words: induced
